The text below walks through data of PMC12111564, “Extended Family of Thiophosphoryl-Appended Pd(II) Pincer Complexes with a Deprotonated Amide Core: Synthesis and Biological Evaluation” (International Journal of Molecular Sciences, 2025).

Data set [1] has as its system human colorectal carcinoma (HCT116). Put plainly: MTT cytotoxicity assay, HCT116. The data set is classed as cell-based. To be noted: 48 h exposure, read-out: IC50 ± SD, HCT116. On the procedure: (§1) The cytotoxic activity of the complexes obtained was screened against several human solid and hematopoietic cancer cell lines using the conventional MTT assay. To evaluate their selectivity for cancerous over non-cancerous cells, analogous tests were performed with pseudonormal human embryonic kidney (HEK293) and breast epithelial (HBL100) cell lines.
(§2) The cytotoxicity of the compounds obtained was investigated on human colorectal carcinoma (HCT116), breast cancer (MCF7), prostate adenocarcinoma (PC3), glioblastoma (U251), ovarian adenocarcinoma (Scov3), chronic myelogenous leukemia (K562 and K562/iS9), multiple plasmacytoma (AMO1), and acute lymphoblastic leukemia (H9) cell lines, as well as human embryonic kidney (HEK293) and mammary epithelial (HBL100 and HBL100/Dox) cells used as non-cancerous cell lineages. All the cell lines were obtained from American Type Culture Collection (ATCC). The tested compounds were initially dissolved in DMSO. Cisplatin was obtained from a commercial source (as an infusion concentrate in natural saline solution). The experiments were performed using the conventional MTT assay (ICN Biomedicals, Eschwege, Germany) according to the previously published procedure.
(Tetrazolium dyes change colour on reduction, which living cells bring about.)

A further data set deals with breast cancer (MCF7). Nature of the data set: MTT cytotoxicity assay, MCF7. The data set is classed as cell-based, human. To be noted: 48 h exposure, read-out: IC50 ± SD, MCF7. The method, then: as §1, §2
For data set [2], the system named is prostate adenocarcinoma (PC3). Put plainly: MTT cytotoxicity assay, PC3. It counts as cell-based, human. To be noted: 48 h exposure, read-out: IC50 ± SD, PC3. The method, then: as §1, §2
The subject of data set [3] is human embryonic kidney (HEK293). Put plainly: MTT cytotoxicity assay, HEK293. The data set is classed as cell-based. Particulars: 48 h exposure, non-cancerous cells, read-out: IC50 ± SD, HEK293. On the procedure:
as §1, §2

The subject of data set [4] is mammary epithelial cells HBL100. Put plainly: MTT cytotoxicity assay, HBL100. It counts as cell-based, human. Particulars: 48 h exposure, non-cancerous cells, read-out: IC50 ± SD, HBL100. On the procedure:
as §1, §2

The test system of data set [5] is doxorubicin-resistant mammary epithelial cells HBL100/Dox. Nature of the data set: MTT cytotoxicity assay, HBL100/Dox. It counts as cell-based, human. Particulars: 48 h exposure, doxorubicin-resistant clone, read-out: IC50 ± SD, HBL100/Dox. On the procedure:
as §1, §2

The test system of data set [6] is chronic myelogenous leukemia (K562). Nature of the data set: MTT cytotoxicity assay, K562. The data set is classed as cell-based, human. Particulars: 48 h exposure, read-out: IC50 ± SD, K562. On the procedure: as §1, §2
Data set [7] concerns doxorubicin-resistant subline of chronic myelogenous leukemia cells (K562/iS9). Put plainly: MTT cytotoxicity assay, K562/iS9. It counts as cell-based, human. Particulars: 48 h exposure, read-out: IC50 ± SD, K562/iS9. The method, then: as §1, §2
Data set [8] has as its system multiple plasmacytoma (AMO1). Put plainly: MTT cytotoxicity assay, AMO1. It counts as cell-based, human. To be noted: 48 h exposure, read-out: IC50 ± SD, AMO1. The method, then: as §1, §2
The nature of data set [9]: Stability in DMSO solution by 31P NMR monitoring. The data set is classed as physicochemical. To be noted: at least for several days. The text has this: The identities and structures of both free amides 2–8 and their cyclopalladated derivatives were unambiguously confirmed based on the IR and multinuclear NMR spectroscopic data (including different 2D NMR techniques), as well as elemental analyses, which are presented in detail in Section 3 (Materials and Methods) and Figures S1–S31 in the Supporting Information (SI). The realization of metalation of the central secondary amide unit in the resulting complexes was supported by the lack of NH proton singlets in the ^1H NMR spectra, as well as the absence of amide II and amide A bands in the IR spectra. The coordination of the thiophosphoryl pendant arm was evidenced by a strong downfield shift of the phosphorus resonance (ΔδP = 8.1–17.4 ppm) and the displacement of the P=S bond stretches towards lower frequencies, which reached up to 65 cm^−1. The coordination of the additional N- or S-donor unit was indirectly indicated by considerable shifts of the signals of CH/CH3 protons or quaternary carbon nuclei located in the close proximity to the heteroatom (for example, ΔδH for the methyl substituent in the thioether group of 13a,b was more than 0.65 ppm, while a coordination shift of the proton signal, corresponding to the CH unit adjacent to the nitrogen atom of the pyridine ring of 9, composed 0.45 ppm).

The subject of data set [10] is Bacillus subtillis (VKM B-501). Nature of the data set: Agar well diffusion, B. subtillis. The data set is classed as cell-based. The method, then:
(§3) The microbial strains Bacillus subtillis (VKM B-501), Micrococcus luteus (VKM Ac-2230), and Groenewaldozyma auringiensis (VKM Y-2927) were used for antimicrobial activity tests. All strains were obtained from the All-Russian Collection of Microorganisms (VKM) at the Skryabin Institute of Biochemistry and Physiology of Microorganisms, Pushchino Scientific Center of Biological Research. B. subtilis and M. luteus were grown on the following medium (g/L): aminopeptide 60 mL; tryptone 5.0 g; yeast extract 1.0 g; soybean extract 30 mL; bacto-agar 15.0 g; final pH 7.2. G. auringiensis was grown on malt extract medium containing the following medium (g/L): malt extract 12.75; dextrin 2.75; glycerol 2.35; gelatin peptone 0.78; bacto-agar 15; final pH 5.4. The antimicrobial activity of ligand 17 and its cyclopalladated derivative 18 (both in the racemic form) was studied by the agar well diffusion method. The overnight grown culture of each strain (100 µL) was applied to the surface of the solid medium, then spread on agar plates using a glass spreader, and left for 30 min. The wells were cut in the culture plates using a sterilized glass tube (4 mm in diameter), and each compound sample was dissolved in DMSO to a final concentration of 0.25 or 2.5 mM (10 µL) and was placed in each well. After this, the plates were kept at room temperature for 3 h to improve the diffusion of the compounds and incubated at 28 °C for 24 h. DMSO (15%) was used as a negative control, while kanamycin (50 mg/mL) was used as a positive control. The antimicrobial activity was determined by measuring the inhibition zone around each well as a mean of three replicates.

The test system of data set [11] is Micrococcus luteus (VKM Ac-2230). Nature of the data set: Agar well diffusion, M. luteus. It counts as cell-based. The method, then:
as §3

For data set [12], the system named is Groenewaldozyma auringiensis (VKM Y-2927). Nature of the data set: Agar well diffusion, G. auringiensis. The data set is classed as cell-based. The method, then:
as §3
On the technique in general: In agar diffusion tests the substance spreads into inoculated agar from a disc or well.

Data set [13] concerns acute lymphoblastic leukemia (H9). Nature of the data set: MTT cytotoxicity assay, H9. Particulars: 48 h exposure, read-out: IC50 ± SD, H9. It counts as cell-based, human. The method, then:
as §1
as §2, with “Cisplatin was obtained from a commercial source (as an infusion concentrate in natural saline solution).” left out

Data set [14] has as its system doxorubicin-resistant mammary epithelial cells HBL100/Dox. Particulars: cited from earlier work.
The subject of data set [15] is doxorubicin-resistant subline of chronic myelogenous leukemia cells (K562/iS9). To be noted: cited from earlier work.
Where [16] appears, read: agar well diffusion, 0.25 or 2.5 mM, racemic form.

In the case of `O=C1c2cccc3ccc[n+](c23)[Pd-2]2([Cl])[S+]=P(c3ccccc3)(c3ccccc3)C[N]12` (stereo not drawn) [Compound 11, [κ^3-S,N,N-(L)Pd(II)Cl] complex], the IC50 worked out at 18 ± 2 µM in data set [1]; 46 ± 4 µM in the data set with breast cancer (MCF7); 31 ± 1 µM in data set [2]; 41 ± 4 µM in data set [3]; 29 ± 5 µM in data set [4]; 41 ± 1 µM in data set [5].

`N.N.[Cl][Pt][Cl]` [cisplatin, reference compound]: the IC50 in data set [1] came to 18 ± 2 µM; with breast cancer (MCF7) it was 25 ± 4 µM; in [2], 16 ± 3 µM; in [3], 12.5 ± 1.5 µM; in data set [4], 14.6 ± 3.6 µM; in [5], 23.6 ± 3.6 µM. Further, the IC50 in data set [6] stood at 15.5 ± 0.5 µM; in [7] it was 16 ± 2 µM; in [8], 3.2 ± 0.6 µM.

`O=C1c2ccc3ccccc3[n+]2[Pd-2]2([Cl])[S+]=P(c3ccccc3)(c3ccccc3)C(c3ccccc3)[N]12` (racemic) [Compound 10a, [κ^3-S,N,N-(L)Pd(II)Cl] complex]: the IC50 in data set [1] is 22 ± 2 µM; with breast cancer (MCF7), > 65 µM; in [2] it was 33 ± 3 µM; in data set [3] it was 15 ± 4 µM; in [4] it was > 60 µM; in [5], > 60 µM.

As to `O=C1c2ccc3ccccc3[n+]2[Pd-2]2([Cl])[S+]=P(c3ccccc3)(c3ccccc3)C[N]12` (stereo not drawn) [Compound 10b, [κ^3-S,N,N-(L)Pd(II)Cl] complex], the IC50 in [1] was 14 ± 4 µM; in the data set on breast cancer (MCF7) it was 31 ± 2 µM; in [2] it was 23 ± 1 µM; in data set [3], 20 ± 4 µM; in [4], 34.2 ± 2.8 µM; in data set [5] it was 46 ± 1.4 µM. In addition, the “stability in solution (DMSO)” value in data set [9] is recorded as “stable in solution”.

Turning to `NC[C@H]1O[C@H](O[C@H]2[C@H](O)[C@@H](O[C@H]3O[C@H](CO)[C@@H](O)[C@H](N)[C@H]3O)[C@H](N)C[C@@H]2N)[C@H](O)[C@@H](O)[C@@H]1O` [Km, kanamycin, reference compound], in [10] (50 mg/mL, positive control), the “Inhibition Zone, B. subtillis (VKM B-501)” value worked out at 10.0 ± 0.8 mm. Also, in data set [11] (50 mg/mL, positive control), the “Inhibition Zone, M. luteus (VKM Ac-2230)” value is recorded as 15.0 ± 1.0 mm. Besides, the “Inhibition Zone, G. auringiensis (VKM Y-2927)” value in [12] (50 mg/mL, positive control) turned out to be 0 mm.

For the compound `C[S+]1CC(=O)[N]2CP(c3ccccc3)(c3ccccc3)=[S+][Pd-2]21[Cl]` (stereo not drawn) [Compound 13b, [κ^3-S,N,S-(L)Pd(II)Cl] complex], the IC50 in [1] was 23 ± 7 µM; in the data set on breast cancer (MCF7), 40 ± 5 µM; in data set [2], 30 ± 2 µM; in data set [3], 34 ± 2 µM; in data set [4] it was 52 ± 4 µM; in data set [5] it was > 60 µM.

For the compound `C[S+]1CC(=O)[N]2C(c3ccccc3)P(c3ccccc3)(c3ccccc3)=[S+][Pd-2]21[Cl]` (racemic) [Compound 13a, [κ^3-S,N,S-(L)Pd(II)Cl] complex], the IC50 was found to be 17 ± 2 µM in [1]; 31 ± 6 µM with breast cancer (MCF7); 30 ± 2.5 µM in [2]; 22 ± 6 µM in data set [3]; 32 ± 6 µM in [4]; 54 ± 5.6 µM in data set [5]. Further, the IC50 in [6] is 14.2 ± 2.2 µM; in [7], 15.2 ± 1.8 µM; in data set [8], 4.2 ± 0.3 µM; in data set [13], 4 ± 0.6 µM.

Consider `COc1cccc2c1C(=O)c1c(O)c3c(c(O)c1C2=O)C[C@@](O)(C(=O)CO)C[C@@H]3O[C@H]1C[C@H](N)[C@H](O)[C@H](C)O1` [doxorubicin], for which the “times less active against the resistant clone (HBL100/Dox vs HBL100)” value in [14] is given as “more than 80 times”. Besides, the “factor of decrease in efficiency, K562/iS9 vs parental K562” value in [15] was 20.

Consider `O=C1c2sc3ccccc3[n+]2[Pd-2]2([Cl])[S+]=P(c3ccccc3)(c3ccccc3)C(c3ccccc3)[N]12` (racemic) [Compound 12, [κ^3-S,N,N-(L)Pd(II)Cl] complex], for which the IC50 was 11.3 ± 3.1 µM in [1]; 19 ± 4.2 µM in the data set on breast cancer (MCF7); 10 ± 2.8 µM in data set [2]; 6.5 ± 2.2 µM in [3]; 12 ± 3.5 µM in [4]; 6.7 ± 1.5 µM in data set [5]. Moreover, the IC50 was 4.2 ± 0.8 µM in [6], 2 ± 0.4 µM in data set [7], 3.7 ± 0.7 µM in data set [8] and 2.2 ± 0.7 µM in data set [13].

`CC(C)C(NC(=O)c1ccccn1)P(=S)(c1ccccc1)c1ccccc1` (stereo not drawn) [Compound 17]: the “inhibitory effect on microorganisms, B. subtillis” value in data set [10] (setting [16]) was “did not exert any inhibitory effect”. In addition, the “inhibitory effect on microorganisms, M. luteus” value in [11] (setting [16]) was “did not exert any inhibitory effect”. Also, in data set [12] (setting [16]), the “inhibitory effect on microorganisms, G. auringiensis” value is given as “did not exert any inhibitory effect”.

In the case of `C[S+]1c2ccccc2C(=O)[N]2C(c3ccccc3)P(c3ccccc3)(c3ccccc3)=[S+][Pd-2]21[Cl]` (racemic) [Compound 14, [κ^3-S,N,S-(L)Pd(II)Cl] complex], the IC50 in data set [1] stood at 4.5 ± 1.1 µM; with breast cancer (MCF7) it was 9.2 ± 0.9 µM; in data set [2] it was 4.2 ± 1.4 µM; in data set [3], 4.9 ± 1.5 µM; in data set [4], 8.4 ± 0.5 µM; in [5], 2.1 ± 0.3 µM. For the same compound, the IC50 in data set [6] stood at 2.1 ± 0.2 µM; in [7] it was 1.7 ± 0.2 µM; in data set [8], 1.2 ± 0.3 µM; in [13], 2.3 ± 0.5 µM.
